Data taken from patent publication US20090176811A1, “Substituted 5,6,7,8-Tetrahydro-pyrido[4,3-d]pyrimidine-2-yl Compounds and 5,6,7,8-Tetrahydro-quinazoline-2-yl Compounds” (GRUENENTHAL GmbH, priority 2004, published 2009).

How the values were obtained:
[1] = biological target: T1, 5-HT transporter (Rattus norvegicus, UniProt P31652); test: 5-HT uptake inhibition in rat brain synaptosomes (medulla and pons); assay type: biochemical
T1 construct: from tissue; host or cells: rat medulla and pons synaptosomes (P2 fraction)
T1 sequence (P31652 whole entry): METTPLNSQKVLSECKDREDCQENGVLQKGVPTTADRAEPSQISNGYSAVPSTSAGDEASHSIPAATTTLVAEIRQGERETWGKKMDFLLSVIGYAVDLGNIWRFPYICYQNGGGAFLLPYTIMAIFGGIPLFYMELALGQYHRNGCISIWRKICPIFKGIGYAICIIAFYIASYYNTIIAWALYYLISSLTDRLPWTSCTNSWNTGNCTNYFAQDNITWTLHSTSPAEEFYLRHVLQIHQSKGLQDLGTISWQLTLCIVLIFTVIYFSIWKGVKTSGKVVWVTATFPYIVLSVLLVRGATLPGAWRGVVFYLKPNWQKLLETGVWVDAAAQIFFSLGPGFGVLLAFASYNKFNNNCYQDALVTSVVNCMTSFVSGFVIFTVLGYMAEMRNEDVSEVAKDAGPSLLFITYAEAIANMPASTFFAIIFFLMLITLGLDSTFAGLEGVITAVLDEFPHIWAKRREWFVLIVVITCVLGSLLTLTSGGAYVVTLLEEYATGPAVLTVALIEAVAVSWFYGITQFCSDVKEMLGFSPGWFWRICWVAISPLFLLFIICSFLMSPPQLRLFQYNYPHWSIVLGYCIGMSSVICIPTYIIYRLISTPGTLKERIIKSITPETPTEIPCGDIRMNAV
Excerpt: (§1) I. Method for Determining Noradrenalin and 5-HT Uptake Inhibition:
(§2) Synaptosomes from rat brain regions are freshly isolated for in vitro studies, as described in the publication “The isolation of nerve endings from brain” by E. G. Gray and V. P. Whittaker, J. Anatomy 96, pages 79-88, 1962. The corresponding literature description is hereby introduced as a reference and is deemed to be part of the disclosure.
(§3) The tissue (hypothalamus for the determination of noradrenalin uptake inhibition and medulla and pons for the determination of 5-HT uptake inhibition) is homogenised in ice-cooled 0.32 M sucrose (100 mg of tissue/1 mL) in a glass homogeniser with Teflon pestle using five complete up and down strokes at 840 revolutions/minute.
(§4) The homogenate is centrifuged at 4° C. for 10 minutes at 1000 g. After subsequent centrifugation at 17000 g for 55 minutes, the synaptosomes (P2 fraction) are obtained, which are resuspended in 0.32 M […] (0.5 mL/100 mg of original weight).
(§5) The particular uptake is measured in a 96-well microtitre plate. The volume is 250 μl and the incubation proceeds at room temperature (approx. 20-25° C.) under an O2 atmosphere.
(§6) The incubation time is 7.5 minutes for [^3H]-NA and 5 minutes for [^3H]-5-HT.
(§7) The 96 samples are then filtered through a Unifilter GF/B microtitre plate (Packard) and washed with 200 mL of incubated buffer using a “Brabdel MPXRI-96T Cell-Harvester”. The Unifilter GF/B plate is dried for 1 hour at 55° C. The plate is then sealed with a Back seal (Packard) and 35 μl of scintillation fluid are added per well (Ultima Gold, Packard). After sealing with a top seal (Packard) and establishing an equilibrium (around 5 hours), radioactivity is determined in a “Trilux 1450 Microbeta” (Wallac).
(§8) The quantity of protein used in the above determination corresponds to the values known from the literature, as for example described in “Protein measurement with the folin phenol reagent”, Lowry et al., J. Biol. Chem., 193, 265-275, 1951.
(§9) A detailed description of the method may additionally be found in the literature, for example in M. Ch. Frink, H.-H. Hennies, W. Engelberger, M. Haurand and B. Wilffert (1996) Arzneim.-Forsch./Drug Res. 46 (III), 11, 1029-1036.
(§10) The corresponding literature descriptions are hereby introduced in each case as a reference and are deemed to be part of the present disclosure.
(§11) The following characteristics were determined for the NA or 5-HT transporter: […]

[2] = biological target: T2, NA transporter (Rattus norvegicus, UniProt Q63380); test: Noradrenalin uptake inhibition in rat brain synaptosomes (hypothalamus); assay type: biochemical
T2 construct: from tissue; host or cells: rat hypothalamus synaptosomes (P2 fraction)
T2 sequence (Q63380 1-617): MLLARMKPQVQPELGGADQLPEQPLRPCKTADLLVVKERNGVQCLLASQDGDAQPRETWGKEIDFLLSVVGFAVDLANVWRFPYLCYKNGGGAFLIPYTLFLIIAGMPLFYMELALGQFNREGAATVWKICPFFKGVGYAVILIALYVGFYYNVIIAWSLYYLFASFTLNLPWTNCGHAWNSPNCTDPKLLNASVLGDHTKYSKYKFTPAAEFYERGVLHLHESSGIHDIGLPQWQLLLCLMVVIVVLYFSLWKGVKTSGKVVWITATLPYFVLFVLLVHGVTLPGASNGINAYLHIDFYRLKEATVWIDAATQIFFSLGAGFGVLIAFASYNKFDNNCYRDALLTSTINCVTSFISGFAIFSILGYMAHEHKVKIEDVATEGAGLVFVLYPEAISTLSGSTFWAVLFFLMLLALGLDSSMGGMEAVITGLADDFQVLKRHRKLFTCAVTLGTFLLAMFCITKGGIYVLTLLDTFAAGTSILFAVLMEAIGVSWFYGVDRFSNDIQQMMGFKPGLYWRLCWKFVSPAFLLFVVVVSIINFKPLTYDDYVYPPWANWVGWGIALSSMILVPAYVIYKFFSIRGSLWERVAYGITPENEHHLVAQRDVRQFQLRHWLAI
Excerpt: as §1, §2, §3, §4, §5, §6, §7, §8, §9, §10, §11

Row | Structure (SMILES) | 5-HT uptake, rat, 1 μM, % inhibition [1] | NA uptake, rat, 10 μM, % inhibition [2] | inhibition at 1 µM [1] | inhibition at 10 µM [2]
1 | O=C(Nc1ncc2c(n1)CCN(C(=O)c1ccc3ccccc3c1)C2)c1ccc(Cl)cc1 [Example 69] | 70% | 73% | – | –
2 | O=C(Nc1ncc2c(n1)CCN(S(=O)(=O)c1ccc(Cl)cc1)C2)c1ccc(Cl)c(Cl)c1 [Example 71, 3,4-dichloro-N-[6-(4-chloro-benzenesulfonyl)-5,6,7,8-tetrahydro-pyrido[4,3-d]pyrimidin-2-yl]-benzamide] | – | – | 47% | 74%
3 | CCc1ccc(C(=O)Nc2ncc3c(n2)CCN(C(=O)c2ccc(-n4cccn4)cc2)C3)cc1 [Example 74, 4-ethyl-N-[6-(4-pyrazol-1-yl-benzoyl)-5,6,7,8-tetrahydro-pyrido[4,3-d]pyrimidin-2-yl]-benzamide] | – | – | 54% | 43%
4 | COc1cccc(C(=O)Nc2ncc3c(n2)CCN(C(=O)c2cccc(F)c2F)C3)c1 [Example 80, N-[6-(2,3-difluoro-benzoyl)-5,6,7,8-tetrahydro-pyrido[4,3-d]pyrimidin-2-yl]-3-methoxy-benzamide] | – | – | – | 54%
5 | CC(C)(C)c1ccc(C(=O)Nc2ncc3c(n2)CCN(S(=O)(=O)c2ccc([N+](=O)[O-])cc2)C3)cc1 [Example 83, 4-tert-butyl-N-[6-(4-nitro-benzenesulfonyl)-5,6,7,8-tetrahydro-pyrido[4,3-d]pyrimidin-2-yl]-benzamide] | – | – | 39% | 77%
6 | COc1ccccc1C(=O)Nc1ncc2c(n1)CCN(S(=O)(=O)c1ccc(Cl)s1)C2 [Example 86, N-[6-(5-chloro-thiophene-2-sulfonyl)-5,6,7,8-tetrahydro-pyrido[4,3-d]pyrimidin-2-yl]-2-methoxy-benzamide] | – | – | – | 32%
7 | Cc1ccc(C(=O)N2CCc3nc(NC(=O)c4ccc(C(C)(C)C)cc4)ncc3C2)cc1[N+](=O)[O-] [Example 92, 4-tert-butyl-N-[6-(4-methyl-3-nitro-benzoyl)-5,6,7,8-tetrahydro-pyrido[4,3-d]pyrimidin-2-yl]-benzamide] | – | – | 66% | 35%
8 | Cc1cc(C)c(S(=O)(=O)N2CCc3nc(NC(=O)c4ccc(Cl)c(Cl)c4)ncc3C2)c(C)c1 [Example 95, 3,4-dichloro-N-[6-(2,4,6-trimethyl-benzenesulfonyl)-5,6,7,8-tetrahydro-pyrido[4,3-d]pyrimidin-2-yl]-benzamide] | – | – | 59% | 72%
9 | Cc1cc(C)c(C)c(S(=O)(=O)N2CCc3nc(NC(=O)c4cccs4)ncc3C2)c1C [Example 99, thiophene-2-carboxylic acid [6-(2,3,5,6-tetramethyl-benzenesulfonyl)-5,6,7,8-tetrahydro-pyrido[4,3-d]pyrimidin-2-yl]-amide] | – | – | 41% | 56%
10 | CCc1ccc(C(=O)Nc2ncc3c(n2)CCN(C(=O)c2ccc(Cl)c(Cl)c2)C3)cc1 [Example 101, N-[6-(3,4-dichloro-benzoyl)-5,6,7,8-tetrahydro-pyrido[4,3-d]pyrimidin-2-yl]-4-ethyl-benzamide] | – | – | 65% | 84%
11 | Cc1ccccc1C(=O)N1CCc2nc(NC(=O)c3cccc(Cl)c3)ncc2C1 [Example 109, 3-chloro-N-[6-(2-methyl-benzoyl)-5,6,7,8-tetrahydro-pyrido[4,3-d]pyrimidin-2-yl]-benzamide] | – | – | 30% | 92%
12 | O=C(Nc1ncc2c(n1)CCN(C(=O)c1sc3ccccc3c1Cl)C2)c1cccs1 [Example 110, thiophene-2-carboxylic acid [6-(3-chloro-benzo[b]thiophene-2-carbonyl)-5,6,7,8-tetrahydro-pyrido[4,3-d]pyrimidin-2-yl]-amide] | – | – | 96% | 75%
13 | CCc1ccc(C(=O)Nc2ncc3c(n2)CCN(S(=O)(=O)c2ccccc2Cl)C3)cc1 [Example 114, N-[6-(2-chloro-benzenesulfonyl)-5,6,7,8-tetrahydro-pyrido[4,3-d]pyrimidin-2-yl]-4-ethyl-benzamide] | – | – | 50% | 73%
14 | Cc1cccc(C(=O)Nc2ncc3c(n2)CCN(S(=O)(=O)c2cccc(C)c2)C3)c1 [Example 116, 3-methyl-N-[6-(toluene-3-sulfonyl)-5,6,7,8-tetrahydro-pyrido[4,3-d]pyrimidin-2-yl]-benzamide] | – | – | 31% | 52%
15 | O=C(Nc1ncc2c(n1)CCN(S(=O)(=O)c1ccc(Cl)s1)C2)c1cccc2ccccc12 [Example 117, naphthalene-1-carboxylic acid [6-(5-chloro-thiophene-2-sulfonyl)-5,6,7,8-tetrahydro-pyrido[4,3-d]pyrimidin-2-yl]-amide] | – | – | 32% | 31%
16 | COc1ccc(C(=O)N2CCc3nc(NC(=O)c4cccc(Cl)c4)ncc3C2)cc1OC [Example 119, 3-chloro-N-[6-(3,4-dimethoxy-benzoyl)-5,6,7,8-tetrahydro-pyrido[4,3-d]pyrimidin-2-yl]-benzamide] | – | – | 34% | 72%
17 | O=C(Nc1ncc2c(n1)CCN(C(=O)c1sc3ccccc3c1Cl)C2)c1ccccc1 [Example 120, N-[6-(3-chloro-benzo[b]thiophene-2-carbonyl)-5,6,7,8-tetrahydro-pyrido[4,3-d]pyrimidin-2-yl]-benzamide] | – | – | 92% | 78%
18 | CCc1ccc(C(=O)Nc2ncc3c(n2)CCN(S(=O)(=O)c2ccsc2)C3)cc1 [Example 121, 4-ethyl-N-[6-(thiophene-3-sulfonyl)-5,6,7,8-tetrahydro-pyrido[4,3-d]pyrimidin-2-yl]-benzamide] | – | – | 52% | 92%
19 | CCOC(=O)CC(=O)N1CCc2nc(NC(=O)c3cccc(Cl)c3)ncc2C1 [Example 124, 3-[2-(3-chloro-benzoylamino)-7,8-dihydro-5H-pyrido[4,3-d]pyrimidin-6-yl]-3-oxo-propionic acid ethyl ester] | – | – | – | 65%
20 | O=C(Nc1ncc2c(n1)CCN(S(=O)(=O)c1cccc(Br)c1)C2)c1cccc(Cl)c1 [Example 125, N-[6-(3-bromo-benzenesulfonyl)-5,6,7,8-tetrahydro-pyrido[4,3-d]pyrimidin-2-yl]-3-chloro-benzamide] | – | – | 43% | 70%
21 | O=C(Nc1ncc2c(n1)CCN(C(=O)Cc1ccc(Cl)cc1)C2)c1ccc(Cl)c(Cl)c1 [Example 126, 3,4-dichloro-N-{6-[2-(4-chloro-phenyl)-acetyl]-5,6,7,8-tetrahydro-pyrido[4,3-d]pyrimidin-2-yl}-benzamide] | – | – | 55% | 89%
22 | O=C(Nc1ncc2c(n1)CCN(C(=O)c1c(F)cccc1Cl)C2)c1cccc(Cl)c1 [Example 127, 3-chloro-N-[6-(2-chloro-6-fluoro-benzoyl)-5,6,7,8-tetrahydro-pyrido[4,3-d]pyrimidin-2-yl]-benzamide] | – | – | 35% | 71%
23 | CC(C(=O)N1CCc2nc(NC(=O)c3ccccc3)ncc2C1)c1ccc(Cl)cc1 (stereo not shown) [Example 176, N-{6-[2-(4-chloro-phenyl)-propionyl]-5,6,7,8-tetrahydro-pyrido[4,3-d]pyrimidin-2-yl}-benzamide] | – | – | – | 38%
24 | O=C(Nc1ncc2c(n1)CCN(C(=O)c1cccc(F)c1)C2)c1cccc2ccccc12 [Example 183, naphthalene-1-carboxylic acid [6-(3-fluoro-benzoyl)-5,6,7,8-tetrahydro-pyrido[4,3-d]pyrimidin-2-yl]-amide] | – | – | – | 63%
25 | COc1ccc(S(=O)(=O)N2CCc3nc(NC(=O)c4ccc(F)cc4)ncc3C2)cc1 [Example 185, 4-fluoro-N-[6-(4-methoxy-benzenesulfonyl)-5,6,7,8-tetrahydro-pyrido[4,3-d]pyrimidin-2-yl]-benzamide] | – | – | – | 36%
26 | COc1ccccc1C(=O)Nc1ncc2c(n1)CCN(C(=O)COCc1ccccc1)C2 [Example 195, N-[6-(2-benzyloxy-acetyl)-5,6,7,8-tetrahydro-pyrido[4,3-d]pyrimidin-2-yl]-2-methoxy-benzamide] | – | – | – | 31%
27 | COc1cccc(C(=O)Nc2ncc3c(n2)CCN(C(=O)c2cccc(OC(F)(F)F)c2)C3)c1 [Example 199, 3-methoxy-N-[6-(3-trifluoromethoxy-benzoyl)-5,6,7,8-tetrahydro-pyrido[4,3-d]pyrimidin-2-yl]-benzamide] | – | – | – | 52%
